Assay results: patent US9546401B2, “Assays and methods for selecting a treatment regimen for a subject with depression” (The General Hospital Corporation, priority 2011, dated 2017)
Like-named read-outs stand apart in the source and are kept apart here.

Experiments:
[1] = tested on: MDD patients carrying the indicated SNP
From the text: The term “prevalence” as used in FIG. 8B refers to the total percentage of MDD patients who carry the SNP as indicated in this particular study.

[2] = tested on: MDD patients, remitters at end of double-blind phase; conditions: for Relapsers (HAM-D-17 > 15) during 12-month maintenance phase: 15 mg/day as adjuvant
Protocol: During each visit, patients are administered the HAM-D-28, the CGI, the QIDS-SR, the SAFTEE-SI, the MGH-CPFQ, and the MGH-SFQ (See, e.g., Table 10 below). […] Subjects are also allowed to change their antidepressant during the course of the follow-up, if deemed appropriate. For patients who refuse the 12 months of free follow-up care, a referral to a psychiatrist is offered.

[3] = tested on: SSRI-resistant outpatients with major depressive disorder (MDD)
Protocol: Documentation of the presence of any side effect or adverse event is completed at every visit using the SAFTEE-SI. Subjects can contact a clinician at any time between visits concerning adverse events or worsening of symptoms. Suicidal ideation is assessed at each visit. Subjects who are felt by the study clinician to be at high risk for suicide are discontinued from the study and referred for hospitalization and further treatment if clinically indicated (See Tables 4 & 5 below).
One-way analysis of variance can be used to assess differences in total number of SAFTEE-SI AEs between baseline and endpoint.

[4] = CACNA1C rs1006737 (AG), genotype code 13
[5] = COMT (Val 158 Met) rs4680 (GG), genotype code 33
[6] = COMT (Val 158 rs4633 (CC), genotype code 22)
[7] = DAT (SLC6A3) rs250682 (CG), genotype code 33
[8] = DNMT3B rs1883729 (AG), genotype code 11/13
[9] = DNMT3B rs1883729 (AG), genotype code 11
[10] = DNMT3B rs1883729 (AG), genotype code 13
[11] = DRD2 (H313H) rs6275 (TT), genotype code 11
[12] = DRD2 (SLC26A9) rs11240594 (AG), genotype code 33
[13] = DRD2 (Taq1Br) rs1079596 (TC), genotype code 42/44
[14] = DRD2 (Taq1Br) rs1079596 (TC), genotype code 42
[15] = FDRC rs2277820 (TC), genotype code 22
[16] = GCH1 rs8007267 (TC), genotype code 42
[17] = GCHFR rs7163862 (TA), genotype code 41
[18] = GCPH or FOLH1 rs202676 (AG), genotype code 31
[19] = MTHFD 1 G1958A (R653Q) rs2236225 (AG), genotype code 33
[20] = MTHFR G1793A rs2274976 (GA), genotype code 42
[21] = PCYT1A rs7639752 (AA), genotype code 11
[22] = RCF1 (in SLC19A1) rs1051266 (AA), genotype code 44
[23] = RCF1 A > G rs2297291 (AA), genotype code 11
[24] = RCF2 (in SLC19A1) rs12659 (TT), genotype code 11
[25] = Trial 2, 15 mg + SSRI, versus placebo

CN1c2c(nc(N)[nH]c2=O)NC[C@@H]1CNc1ccc(C(=O)N[C@@H](CCC(=O)O)C(=O)O)cc1 [6(S)-5-MTHF, 6(S)-5-methyltetrahydrofolate]
PHASE I EFFFCT, change in HAMD-28 [1, 4]: −8.006 | PHASE II EFFFCT, change in HAMD-28 [1, 4]: −2.467 | POOLED PHASES EFFFCT, change in HAMD-28 [1, 4]: −4.633 | PHASE II EFFFCT, change in HAMD-28 [1, 5]: −10.170 | PHASE I EFFFCT, change in HAMD-28 ([1]; COMT (Val 158 Met) rs4680 (GG), genotype code 33, folate-containing compound + SSRI): −12.070 | POOLED PHASES EFFFCT, change in HAMD-28 [1, 5]: −10.880 | PHASE I EFFFCT, change in HAMD-28 [1, 6]: −10.070 | PHASE II EFFFCT, change in HAMD-28 [1, 6]: −10.170 | POOLED PHASES EFFFCT, change in HAMD-28 [1, 6]: −9.240 | PHASE I EFFFCT, change in HAMD-28 [1, 7]: −5.722 | PHASE II EFFFCT, change in HAMD-28 [1, 7]: −5.768 | POOLED PHASES EFFFCT, change in HAMD-28 [1, 7]: −4.996 | PHASE I EFFFCT, change in HAMD-28 [1, 8]: −6.340 | PHASE II EFFFCT, change in HAMD-28 [1, 8]: −4.940 | POOLED PHASES EFFFCT, change in HAMD-28 [1, 8]: −5.360 | PHASE I EFFFCT, change in HAMD-28 [1, 9]: −2.318 | PHASE II EFFFCT, change in HAMD-28 [1, 9]: −5.267 | POOLED PHASES EFFFCT, change in HAMD-28 [1, 9]: −4.811 | PHASE I EFFFCT, change in HAMD-28 [1, 10]: −8.097 | PHASE II EFFFCT, change in HAMD-28 [1, 10]: −4.667 | POOLED PHASES EFFFCT, change in HAMD-28 [1, 10]: −6.748 | PHASE I EFFFCT, change in HAMD-28 [1, 11]: −16.560 | PHASE II EFFFCT, change in HAMD-28 [1, 11]: 1.667 | POOLED PHASES EFFFCT, change in HAMD-28 [1, 11]: −7.627 | PHASE I EFFFCT, change in HAMD-28 [1, 12]: −5.018 | PHASE II EFFFCT, change in HAMD-28 [1, 12]: −3.424 | POOLED PHASES EFFFCT, change in HAMD-28 [1, 12]: −3.758 | PHASE I EFFFCT, change in HAMD-28 [1, 13]: −10.640 | PHASE II EFFFCT, change in HAMD-28 [1, 13]: −3.893 | POOLED PHASES EFFFCT, change in HAMD-28 [1, 13]: −6.903 | PHASE I EFFFCT, change in HAMD-28 [1, 14]: −10.640 | PHASE II EFFFCT, change in HAMD-28 [1, 14]: −3.893 | POOLED PHASES EFFFCT, change in HAMD-28 [1, 14]: −6.903 | PHASE I EFFFCT, change in HAMD-28 [1, 15]: −2.634 | PHASE II EFFFCT, change in HAMD-28 [1, 15]: −6.232 | POOLED PHASES EFFFCT, change in HAMD-28 [1, 15]: −4.027 | PHASE I EFFFCT, change in HAMD-28 [1, 16]: −7.729 | PHASE II EFFFCT, change in HAMD-28 [1, 16]: −5.417 | POOLED PHASES EFFFCT, change in HAMD-28 [1, 16]: −6.654 | PHASE I EFFFCT, change in HAMD-28 [1, 17]: −6.280 | PHASE II EFFFCT, change in HAMD-28 [1, 17]: −4.542 | POOLED PHASES EFFFCT, change in HAMD-28 [1, 17]: −4.863 | PHASE I EFFFCT, change in HAMD-28 [1, 18]: −7.314 | PHASE II EFFFCT, change in HAMD-28 [1, 18]: −3.300 | POOLED PHASES EFFFCT, change in HAMD-28 [1, 18]: −5.402 | PHASE I EFFFCT, change in HAMD-28 [1, 19]: −2.742 | PHASE II EFFFCT, change in HAMD-28 [1, 19]: −3.762 | POOLED PHASES EFFFCT, change in HAMD-28 [1, 19]: −3.496 | PHASE I EFFFCT, change in HAMD-28 [1, 20]: −5.333 | PHASE II EFFFCT, change in HAMD-28 [1, 20]: 2.833 | POOLED PHASES EFFFCT, change in HAMD-28 [1, 20]: −5.551 | PHASE I EFFFCT, change in HAMD-28 [1, 21]: −10.400 | PHASE II EFFFCT, change in HAMD-28 [1, 21]: −3.900 | POOLED PHASES EFFFCT, change in HAMD-28 [1, 21]: −6.716 | PHASE I EFFFCT, change in HAMD-28 [1, 22]: −10.000 | PHASE II EFFFCT, change in HAMD-28 [1, 22]: −2.750 | POOLED PHASES EFFFCT, change in HAMD-28 [1, 22]: −7.673 | PHASE I EFFFCT, change in HAMD-28 [1, 23]: −8.778 | PHASE II EFFFCT, change in HAMD-28 [1, 23]: −1.400 | POOLED PHASES EFFFCT, change in HAMD-28 [1, 23]: −5.458 | PHASE I EFFFCT, change in HAMD-28 [1, 24]: −7.571 | PHASE II EFFFCT, change in HAMD-28 [1, 24]: −1.400 | POOLED PHASES EFFFCT, change in HAMD-28 [1, 24]: −4.860 | Relapsers (HAM-D-17 > 15) during 12-month maintenance phase ([2]; Trial 1, 2 remitters entering maintenance): 0 | Relapsers (HAM-D-17 > 15) during 12-month maintenance phase ([2]; Trial 2, 9 remitters entering maintenance): 0 | relapse during 12-month maintenance phase ([2]; remitters at end of double-blind phase, 15 mg/day adjunctive): did not have a relapse | number of adverse events (SAFTEE-SI) ([3]; SSRI + 15 mg/day versus SSRI + placebo): no significant differences in the number of adverse events | discontinuation due to overall adverse side-effects or exclusion events ([3]; Trial 2): no difference in discontinuation | Cardiovascular side effects, Frequency ([3]; Trial 2, 15 mg + SSRI, n = 42): 0 | Cardiovascular side effects, Frequency (%) ([3]; Trial 2, 15 mg + SSRI, n = 42): (0%) | Gastrointestinal side effects, Frequency ([3]; Trial 2, 15 mg + SSRI, n = 42): 7 | Gastrointestinal side effects, Frequency (%) ([3]; Trial 2, 15 mg + SSRI, n = 42): (16.7%) | Infectious side effects, Frequency ([3]; Trial 2, 15 mg + SSRI, n = 42): 5 | Infectious side effects, Frequency (%) ([3]; Trial 2, 15 mg + SSRI, n = 42): (11.9%) | Miscellaneous side effects, Frequency ([3]; Trial 2, 15 mg + SSRI, n = 42): 1 | Miscellaneous side effects, Frequency (%) ([3]; Trial 2, 15 mg + SSRI, n = 42): (2.4%) | Psychological side effects, Frequency ([3]; Trial 2, 15 mg + SSRI, n = 42): 4 | Psychological side effects, Frequency (%) ([3]; Trial 2, 15 mg + SSRI, n = 42): (9.5%) | Sexual side effects, Frequency ([3]; Trial 2, 15 mg + SSRI, n = 42): 1 | Sexual side effects, Frequency (%) ([3]; Trial 2, 15 mg + SSRI, n = 42): (2.4%) | Sleep side effects, Frequency ([3]; Trial 2, 15 mg + SSRI, n = 42): 1 | Sleep side effects, Frequency (%) ([3]; Trial 2, 15 mg + SSRI, n = 42): (2.4%) | Somatic side effects, Frequency ([3]; Trial 2, 15 mg + SSRI, n = 42): 6 | Somatic side effects, Frequency (%) ([3]; Trial 2, 15 mg + SSRI, n = 42): (14.3%) | Cardiovascular side effects, NNH [3, 25]: =placebo | Gastrointestinal side effects, NNH [3, 25]: 53 | Infectious side effects, NNH [3, 25]: <placebo | Miscellaneous side effects, NNH [3, 25]: <placebo | Psychological side effects, NNH [3, 25]: <placebo | Sexual side effects, NNH [3, 25]: 98 | Sleep side effects, NNH [3, 25]: <placebo | Somatic side effects, NNH [3, 25]: <placebo
